# Assay results from paper PMC12040169 (PLOS Biology, 2025).
# Assay: in vitro
# Details: human, hela cells, % viability
row,Structure (SMILES),"viability at 28.5 h, 10 µM [%]"
1,CS(=O)(=O)c1ccc(-c2nccnc2N2CCN(c3ccncc3)CC2)cc1 [CBK036924],98.5
2,CN(C)c1ccc(-c2nccnc2NCC(O)COc2ccccc2)cc1 (centres unmarked) [CBK036928],103
3,CC(=O)c1ccc(-c2nc(NC(=O)c3ccccn3)cnc2-c2cccc(OC(F)(F)F)c2)s1 [CBK036929],107
4,Cc1ccc(-c2ccc(N3CCN(C)CC3)nc2)cc1C [CBK036937],93.7
5,CCOc1ccccc1C(=O)Nc1cnc(-c2cccc(OC(F)(F)F)c2)c(-c2cccnc2)n1 [CBK036952],114
6,COc1ccc(-c2nc(NC(=O)c3ccco3)cnc2-c2cccc(C)c2)cn1 [CBK036954],96.8
7,O=C(COc1ccccc1)Nc1cnc(-c2ccc(F)cc2)c(-c2ccsc2)n1 [CBK036958],91.7
8,CC(=O)Nc1cccc(-c2cc(N3CCN(C(=O)c4ccco4)CC3)ncn2)c1 [CBK036959],93.7
9,c1ccc(CCNc2cc(-c3ccsc3)ncn2)nc1 [CBK036963],93.9
10,c1cncc(-c2nccnc2N2CCN(c3ccncc3)CC2)c1 [CBK036965],86.4
11,COc1ccc(N2CCN(c3nccnc3-c3ccc(C(C)=O)s3)CC2)cc1OC [CBK036968],109
12,COc1ccc(-c2cc(Nc3ccc(N(C)C)cc3)ncn2)cc1OC [CBK036969],108
13,COc1ncc(-c2nccnc2NCC(C)O)c(OC)n1 (centres unmarked) [CBK036970],105
14,CCN(CC)CCN1CCN(c2cc(-c3ccsc3)ncn2)CC1 [CBK036973],93.7
15,c1ccc(CN2CC[C@H](Nc3nccnc3-c3cccnc3)C2)cc1 [CBK036978],104
16,CCCC/C=C/c1ccc(N2CCN(CCN(C)C)CC2)nc1 [CBK036980],101
17,CC(=O)c1ccc(-c2nccnc2N[C@@H]2CCN(Cc3ccccc3)C2)s1 [CBK036981],104
18,CN1CCN(c2cccc(-c3cc(C(F)(F)F)cc(C(F)(F)F)c3)n2)CC1 [CBK036982],93.3
19,CN(C)CCN(C)c1cccc(-c2ccc(CCC(=O)O)cc2)n1 [CBK036983],105
20,CN(C)c1cccc(Nc2ccc(/C=C/c3ccccc3)cn2)c1 [CBK036984],98.7
21,Nc1cccc(-c2ccc(NCc3cc(F)c(F)c(F)c3)nc2)c1 [CBK036985],97.2
22,c1ccc(Oc2ccc(Nc3cccc(-c4ccc(N5CCOCC5)cc4)n3)cc2)cc1 [CBK036986],95.4
23,COc1cc(Nc2cccc(-c3ccsc3)n2)cc(OC)c1OC [CBK036987],97.9

row,Structure (SMILES),"viability at 28.5 h, 10 µM [%]"
1,CC(=O)c1ccc(-c2cc(N3CCN(C(=O)c4ccco4)CC3)ncn2)s1 [CBK036999],105
2,COc1ccccc1CCC(=O)Nc1cnc(-c2ccc(F)cc2)c(-c2ccco2)n1 [CBK037002],95.1
3,CC(=O)c1ccc(-c2nccnc2N2CCN(c3ccncc3)CC2)s1 [CBK037015],95.8
4,C=CCNc1nccnc1-c1cccnc1 [CBK037016],101
5,Oc1cccc(-c2nccnc2N[C@@H]2CCN(Cc3ccccc3)C2)c1 [CBK037017],98.2
6,CN1CCN(c2cccc(-c3cc4ccccc4s3)n2)CC1 [CBK037019],102
7,COc1ccc(Nc2ccc(-c3cccc(OC(F)(F)F)c3)cn2)cn1 [CBK037022],100
8,COc1cncc(-c2cccc(N3CCN(CCN(C)C)CC3)n2)c1 [CBK037024],97.4
9,Oc1ccc(-c2cccc(N3CCN(c4ccccn4)CC3)n2)cc1 [CBK037028],103
10,CN(C)CCN1CCN(c2cccc(-c3ccncc3)n2)CC1 [CBK037029],95.9
11,Cc1cccc(-c2ncc(NC(=O)Cc3ccc(OC(F)(F)F)cc3)nc2-c2cccnc2)c1 [CBK037030],89.2
12,C[C@H](Nc1nccnc1-c1ccco1)c1ccccc1 [CBK037032],93.1
13,COc1ncc(-c2cc(N3CCN(CCN(C)C)CC3)n3nccc3n2)c(OC)n1 [CBK037033],87.7
14,CC(=O)N1CCC(C(=O)Nc2cnc(-c3ccc(F)cc3)c(-c3ccco3)n2)CC1 [CBK037038],104
15,CN(C)c1ccccc1-c1cc(N2CCN(S(=O)(=O)c3ccc(Cl)cc3)CC2)ncn1 [CBK037039],81.7
16,Clc1cc(NCc2ccc(Cl)c(Cl)c2)n2nccc2n1 [CBK037043],97.7
17,CC(=O)c1ccc(-c2nccnc2NCc2cccnc2)s1 [CBK037050],99.5
18,C=CCNc1nccnc1-c1ccc(C(C)=O)s1 [CBK037052],88.8
19,OC(CNc1nccnc1-c1ccsc1)COc1ccccc1 (centres unmarked) [CBK037057],96.3
20,O=C(c1ccc(-c2nccnc2NCc2cccs2)cc1)N1CCOCC1 [CBK037059],98.8
21,COc1cc(-c2cc(N3CCN(Cc4cccnc4)CC3)n3nccc3n2)cc(OC)c1OC [CBK037063],95.9
22,OCc1ccc(-c2nccnc2NCc2cccc(C(F)(F)F)c2)cc1 [CBK037076],114
23,Oc1cccc(-c2nccnc2N2CCN(c3ccncc3)CC2)c1 [CBK037079],113

row,Structure (SMILES),"viability at 28.5 h, 10 µM [%]"
1,O=C(O)c1cccc(-c2cc(N3CCN(Cc4cccnc4)CC3)n3nccc3n2)c1 [CBK037080],106
2,OC(CNc1nccnc1-c1ccccc1Cl)COc1ccccc1 (centres unmarked) [CBK037085],92
3,OCc1ccc(-c2nccnc2NCc2ccccn2)cc1 [CBK037088],106
4,CC(C)Nc1nccnc1-c1cccc(O)c1 [CBK037089],97.3
5,Cc1cccc(-c2ncc(NC(=O)COc3ccc([N+](=O)[O-])cc3)nc2-c2cccnc2)c1 [CBK037096],97.8
6,CN1CCN(c2cc(-c3cccc(CO)c3)nc3ccnn23)CC1 [CBK037099],98.1
7,CCCNc1nccnc1-c1ccc(F)c(Cl)c1 [CBK037100],104
8,CC(CCCC(C)(C)O)Nc1cc(N2CCN(C)CC2)n2nccc2n1 (centres unmarked) [CBK037103],98.2
9,COc1ccc(-c2nc(NC(=O)c3cccc(S(C)(=O)=O)c3)cnc2-c2ccc(F)cc2)cc1 [CBK037110],100
10,OCc1cccc(-c2cc(NCc3ccccc3)n3nccc3n2)c1 [CBK037113],95.6
11,CCSc1ccc(-c2cc(N(C)c3cccc(C)c3)n3nccc3n2)cc1 [CBK037115],100
12,CCCC/C=C/c1nccnc1NCc1ccco1 [CBK037116],105
13,CC(C)[C@@H](CO)Nc1cc(-c2cccc(Br)c2)nc2ccnn12 [CBK037117],93.9
14,COc1ccc(Nc2cc(-c3cccc(NC(C)=O)c3)ncn2)cn1 [CBK037125],95.1
15,OCCN1CCN(c2cc(N3CCN(c4ccccn4)CC3)n3nccc3n2)CC1 [CBK037129],100
16,CN(C)CCNC(=O)c1cccc(-c2cc(N3CCCN(C)CC3)n3nccc3n2)c1 [CBK037143],86.2
17,CC(=O)Nc1cccc(-c2cc(NCc3ccccc3)n3nccc3n2)c1 [CBK037153],97.2
18,CN1CCN(c2cc(NCC(c3cccnc3)N(C)C)nc3ccnn23)CC1 (centres unmarked) [CBK037157],106
19,COc1cc(Nc2cncc(-c3ccccc3CO)n2)cc(OC)c1OC [CBK037160],95.4
20,COc1ccc(Nc2cc(-c3ccccc3OC)ncn2)cn1 [CBK037176],88.9
21,COc1cc(-c2cc(N(C)CCN(C)C)n3nccc3n2)cc(OC)c1OC [CBK037181],110
22,Cc1cc(-c2nccnc2N2CCN(CCN(C)C)CC2)cc(C)c1O [CBK037184],105
23,O=C(Cc1ccccc1Oc1ccccc1)Nc1cnc(-c2ccc(F)cc2)c(-c2ccco2)n1 [CBK037194],92.6

row,Structure (SMILES),"viability at 28.5 h, 10 µM [%]"
1,c1cncc(-c2cncc(NCC3CCOCC3)n2)c1 [CBK037195],92.7
2,O=C(CSc1ccccc1)Nc1cnc(-c2ccc(F)cc2)c(-c2ccco2)n1 [CBK037196],101
3,Cc1cccc(-c2ncc(NC(=O)CCc3cccc(Cl)c3)nc2-c2cccnc2)c1 [CBK037201],97.2
4,c1cncc(-c2nccnc2NCc2ccco2)c1 [CBK037204],102
5,COc1cc(CNc2cc(-c3ccc(F)c(Cl)c3)nc3ccnn23)cc(OC)c1OC [CBK037209],107
6,CN(CC(=O)Nc1cnc(-c2ccc(F)cc2)c(-c2ccco2)n1)S(=O)(=O)c1ccccc1 [CBK037214],100
7,Clc1cc(NCCc2c[nH]c3ccccc23)n2nccc2n1 [CBK037218],40.6
8,CN(C)CCN(C)c1cc(-c2ccc(F)c(Cl)c2)nc2ccnn12 [CBK037230],90.4
9,Clc1cccc(-c2cc(NCc3cccs3)n3nccc3n2)c1 [CBK037238],105
10,COc1ccc(C(=O)OC(C)(C)C)c(-c2cncc(N3CCN(CCO)CC3)n2)c1 [CBK037239],101
11,CC(C)[C@@H](CO)Nc1cc(Cl)nc2ccnn12 [CBK037242],96.2
12,COc1ccc(-c2cc(N3CCCN(C)CC3)n3nccc3n2)cc1 [CBK037244],106
13,CN(C)C(CNc1cncc(-c2cccc(Cl)c2)n1)c1cccnc1 (centres unmarked) [CBK037247],113
14,CC(C)[C@@H](CO)Nc1cncc(-c2cccc(Cl)c2)n1 [CBK037261],102
15,COc1cc(-c2nccnc2NCCCO)cc(OC)c1OC [CBK037274],105
16,FC(F)(F)c1cc(-c2cn3ccnc3c(NC3CCOCC3)n2)cc(C(F)(F)F)c1 [CBK037278],107
17,Clc1cccc(-c2cncc(N3CCN(Cc4ccccn4)CC3)n2)c1 [CBK037282],99.5
18,c1cncc(-c2nccnc2NCCCN2CCOCC2)c1 [CBK037286],107
19,FC(F)(F)c1cccc(-c2nccnc2NCCCN2CCOCC2)c1 [CBK037288],97.6
20,CN(C)C(CNc1nccnc1-c1ccccc1F)c1cccnc1 (centres unmarked) [CBK037290],101
